The values that follow come from US20100227853A1, “INHIBITORS OF CYCLIC AMP PHOSPHODIESTERASES” (Trustees of Boston College, priority 2008, published 2010).

Test [1] deals with T1, PDE4A5 (Rattus norvegicus, UniProt P54748).
T1 construct: targets used in the assays are full-length proteins (as opposed to simply the catalytic domain); expressed in transfected cells; host or cells: Schizosaccharomyces pombe, PDE gene integrated in place of cgs2
T1 sequence (P54748 1-844): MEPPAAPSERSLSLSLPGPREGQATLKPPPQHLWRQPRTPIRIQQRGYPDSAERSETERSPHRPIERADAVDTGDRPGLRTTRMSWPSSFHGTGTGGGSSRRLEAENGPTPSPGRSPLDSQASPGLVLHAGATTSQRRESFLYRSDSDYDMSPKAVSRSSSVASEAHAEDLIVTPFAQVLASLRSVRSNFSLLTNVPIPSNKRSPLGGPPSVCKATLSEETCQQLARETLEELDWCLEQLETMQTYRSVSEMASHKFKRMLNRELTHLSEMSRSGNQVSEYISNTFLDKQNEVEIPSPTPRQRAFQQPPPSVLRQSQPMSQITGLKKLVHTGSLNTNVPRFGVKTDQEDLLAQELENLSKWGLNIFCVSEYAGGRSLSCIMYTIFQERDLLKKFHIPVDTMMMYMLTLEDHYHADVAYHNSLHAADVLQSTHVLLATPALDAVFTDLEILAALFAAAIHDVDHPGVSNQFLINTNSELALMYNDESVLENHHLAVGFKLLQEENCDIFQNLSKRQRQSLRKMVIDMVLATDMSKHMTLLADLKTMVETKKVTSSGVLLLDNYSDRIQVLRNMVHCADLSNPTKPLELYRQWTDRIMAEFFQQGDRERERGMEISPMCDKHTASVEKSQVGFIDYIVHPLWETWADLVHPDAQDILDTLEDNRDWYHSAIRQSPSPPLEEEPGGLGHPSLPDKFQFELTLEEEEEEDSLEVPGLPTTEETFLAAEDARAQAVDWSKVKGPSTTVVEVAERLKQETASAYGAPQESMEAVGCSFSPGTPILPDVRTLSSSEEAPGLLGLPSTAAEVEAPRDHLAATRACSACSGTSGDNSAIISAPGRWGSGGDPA
The test can be described thus: 5FOA growth assay in fission yeast strain expressing PDE4A5. As to conditions: 20 uM. The test is classed as cell-based. On the procedure:
(§1) High throughput drug screens were carried out at the Broad Institute's Chemical Biology Program screening facility (Broad Institute, Cambridge, Mass.). Depending upon the strain, cultures were pregrown to exponential phase in EMM complete medium containing from 0.5 to 2.5 mM cAMP to repress fbp1-ura4 transcription. Cells were collected by centrifugation, resuspended in 5FOA medium, and 25 μl were transferred to 384-well microtiter dishes (untreated, with flat clear bottoms) that had been pre-filled with 25 μl 5FOA medium and pre-pinned with 100 nl of compounds (stock solutions were generally 10 mM) from a subset of the Prestwick Bioactive and the Microsource Spectrum compound libraries. Starting cell concentrations ranged from 0.5×10^5 to 4×10^5 cells/ml depending on the screening strain. […] Other positive control dishes contained 5 mM cAMP in the 5FOA medium. Cultures were grown for 48 hours at 30° C., sealed in an airtight container with moist paper towels to prevent evaporation. Optical densities (OD600) of cultures were measured using a microplate reader. Bioinformatic analysis of the results to determine composite Z scores was performed as previously described^30, 31.
(§2) Cells were pregrown in EMM medium [MP Biomedicals (Solon, Ohio), 3% glucose, filter-sterilized to avoid carmelization, which would introduce variability into the optical density of the medium] containing from 0 mM to 2.5 mM cAMP (or either 0.5 mM or 1.0 mM cGMP). This was to repress expression of the fbp1-ura4 reporter prior to exposure of cells to 5FOA medium. Cells were grown at 30° C. to exponential phase (approximately 10^7 cells/ml). Cells were collected by centrifugation and resuspended in 5FOA medium, and 25 μl were transferred to 384-well microtiter dishes (untreated, with flat clear bottoms) that had been pre-filled with 25 μl 5FOA medium and pre-pinned with 100 nl of compounds (stock solutions were generally 10 mM). Starting cell concentrations ranged from 0.5×10^5 to 4×10^5 cells/ml depending on the screening strain. […] Other positive control dishes contained 5 mM cAMP in the 5FOA medium for PDEs that lack appropriate control compounds. Cultures were grown for 48 hours at 30° C., sealed in an airtight container with moist paper towels to prevent evaporation. Optical densities (OD600) of cultures were measured using a microplate reader. Bioinformatic analysis of the results to determine composite Z scores was performed as previously described (1, 3).

For test [2], the target named is T2, PDE4B3 (Mus musculus, UniProt Q8VBU5).
T2 construct: targets used in the assays are full-length proteins (as opposed to simply the catalytic domain); expressed in transfected cells; host or cells: Schizosaccharomyces pombe, PDE gene integrated in place of cgs2
T2 sequence (Q8VBU5 1-721): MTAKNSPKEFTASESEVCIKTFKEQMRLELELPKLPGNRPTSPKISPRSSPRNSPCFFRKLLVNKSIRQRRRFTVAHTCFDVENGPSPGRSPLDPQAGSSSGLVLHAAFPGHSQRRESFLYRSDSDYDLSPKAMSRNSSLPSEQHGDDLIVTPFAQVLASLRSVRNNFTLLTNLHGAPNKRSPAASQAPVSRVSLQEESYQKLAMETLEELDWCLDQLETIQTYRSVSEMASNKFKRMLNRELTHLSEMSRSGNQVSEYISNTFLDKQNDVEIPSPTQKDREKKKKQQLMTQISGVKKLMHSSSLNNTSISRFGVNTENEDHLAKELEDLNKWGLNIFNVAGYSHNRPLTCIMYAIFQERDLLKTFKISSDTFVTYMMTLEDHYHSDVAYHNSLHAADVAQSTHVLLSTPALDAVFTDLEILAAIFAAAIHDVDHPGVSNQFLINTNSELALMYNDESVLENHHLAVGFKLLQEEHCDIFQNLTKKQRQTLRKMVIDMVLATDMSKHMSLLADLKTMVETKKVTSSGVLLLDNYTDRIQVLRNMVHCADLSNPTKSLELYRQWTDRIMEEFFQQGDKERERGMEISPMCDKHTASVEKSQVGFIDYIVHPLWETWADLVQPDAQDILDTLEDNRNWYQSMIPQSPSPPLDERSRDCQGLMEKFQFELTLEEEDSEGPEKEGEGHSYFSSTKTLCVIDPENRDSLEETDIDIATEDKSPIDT
As to the kind of experiment: 5FOA growth assay in fission yeast strain expressing PDE4B3. The test is classed as cell-based, Murine. As to conditions: 20 uM. As to the method: as §1, with “Cells were collected by centrifugation, resuspended in 5FOA medium, and 25 μl were transferred to 384-well microtiter dishes (untreated, with flat clear bottoms) that had been pre-filled with 25 μl 5FOA medium and pre-pinned with 100 nl of compounds (stock solutions were generally 10 mM) from a subset of the Prestwick Bioactive and the Microsource Spectrum compound libraries.” left out
To determine whether the 5FOA growth phenotype could be exploited for high throughput drug screening, strains expressing PDE2A, PDE4A, PDE4B, or PDE8A were pre-grown in EMM medium containing cAMP and then transferred to 5FOA medium in 384 well microtiter plates in the presence or absence of cAMP. OD600 measurements were taken after 48 hours incubation at 30° C.
as §2, with “Cells were collected by centrifugation and resuspended in 5FOA medium, and 25 μl were transferred to 384-well microtiter dishes (untreated, with flat clear bottoms) that had been pre-filled with 25 μl 5FOA medium and pre-pinned with 100 nl of compounds (stock solutions were generally 10 mM).” left out

Test [3] has as its system PDE4A, PDE4B, PDE4D, PDE7A, PDE7B, PDE8A, PDE3A. The test can be described thus: Summary of PDE inhibitor profile. More on the design: key to PDE inhibitor profile (Table 17): (1): Strong PDE4A, PDE4B inhibitor; (2): Strong PDE4A inhibitor; (3): Strong PDE4B, moderate PDE4A inhibitor; (4): Moderate PDE4A, PDE4B inhibitor; (5): Moderate PDE4B inhibitor; key to inhibitor class, Table 15: (1): Strong PDE4A5 inhibitor; (2): Strong PDE4A, 4B inhibitor; Moderate PDE4D inhibitor; (3): Strong PDE4A. 4B inhibitor; (4): Strong PDE4A, 4B, PDE7A inhibitor: Weak PDE4D inhibitor. The conditions noted are these: for PDE inhibitor profile (Table 17): overall classification, Table 17 footnotes.

Test [4] has as its target T3, PDE4A1 (Mus musculus, UniProt O89084).
T3 construct: targets used in the assays are full-length proteins (as opposed to simply the catalytic domain); expressed in transfected cells; host or cells: Schizosaccharomyces pombe, PDE gene integrated in place of cgs2
T3 sequence (O89084 1-610 isoform O89084-2): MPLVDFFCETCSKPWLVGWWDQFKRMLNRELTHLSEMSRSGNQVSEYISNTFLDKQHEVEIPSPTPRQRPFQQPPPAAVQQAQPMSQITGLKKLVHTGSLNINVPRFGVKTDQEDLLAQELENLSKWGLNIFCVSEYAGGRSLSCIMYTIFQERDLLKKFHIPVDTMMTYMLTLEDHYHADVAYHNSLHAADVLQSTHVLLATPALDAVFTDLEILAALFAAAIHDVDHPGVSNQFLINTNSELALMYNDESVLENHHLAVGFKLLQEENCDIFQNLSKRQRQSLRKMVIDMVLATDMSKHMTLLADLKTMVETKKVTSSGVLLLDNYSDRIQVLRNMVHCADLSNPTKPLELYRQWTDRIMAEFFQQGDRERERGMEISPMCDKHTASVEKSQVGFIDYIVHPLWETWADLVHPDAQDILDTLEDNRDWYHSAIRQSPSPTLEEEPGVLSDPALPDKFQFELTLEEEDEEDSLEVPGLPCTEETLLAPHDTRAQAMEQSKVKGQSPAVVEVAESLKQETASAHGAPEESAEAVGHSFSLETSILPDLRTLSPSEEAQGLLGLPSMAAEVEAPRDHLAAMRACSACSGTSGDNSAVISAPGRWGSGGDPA
As to the kind of experiment: 5FOA growth assay (high throughput screen, ED50) in fission yeast strain expressing PDE4A1. The test is classed as cell-based. As to conditions: 20 uM; PDE 4A1. The procedure, abridged: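 Fission yeast strains carrying mouse PDE4A1 or PDE4B3 and an fbp1-ura4 reporter were pregrown in EMM with 0.5–2.5 mM cAMP, then seeded at 0.5–4×10^5 cells/ml in 5FOA medium with compound. Growth was read as OD600 after 48 h at 30° C; composite Z scores were derived.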

Regarding `CCOC(=O)c1sc2sc(C(=O)OCC)c(-c3ccc(Cl)cc3)c2c1N` [2055, N01], the “1 Assay (20 uM) 4A5” value in test [1] was found to be 0.582 ND ND ND ND. The “1 Assay (20 uM) 4B3” value in test [2] worked out at 1.8421 ND ND ND ND.

Regarding `COC(=O)C1=C(C)N(CC(C)C)C(=O)/C1=C\c1ccco1` [Compound 27-2], the “inhibitor class, Table 15” value in test [3] was 27-2 (2).

With `COC(=O)C1=C(C)N(c2ccccc2Cl)C(=O)/C1=C\c1cccs1` [Compound 27-8], the “inhibitor class, Table 15” value in test [3] is 27-8 (2).

Consider `COC(=O)C1=C(C)N(c2cccc(C)c2)C(=O)/C1=C\c1cccs1` [Compound 27-5], for which, in test [3], the “inhibitor class, Table 15” value is 27-5 (2).

As for `O=C(O)Cn1c2ccc(Cl)cc2c2nc3ccccc3nc21` [1429, L06], in test [3], the “PDE inhibitor profile (Table 17)” value is on record as 1429, L06 (4). Moreover, the “1 Assay (20 uM) 4B3” value in test [2] (PDE 4B3) is on record as 41.77 ND ND ND ND. In addition, the “1 Assay (20 uM) 4A1” value in test [4] stood at 29.15 ND ND ND ND.

For `COC(=O)C1=C(C)N(C)C(=O)/C1=C\c1cccs1` [Compound 27-1], the “inhibitor class, Table 15” value in test [3] is recorded as 27-1 (1).

Regarding `COC(=O)C1=C(C)N(CC(C)C)C(=O)/C1=C\c1cccs1` [Compound 27-3], in test [3], the “inhibitor class, Table 15” value is on record as 27-3 (1).

For `COC(=O)C1=C(C)N(c2ccc(F)cc2)C(=O)/C1=C\c1cccs1` [Compound 27-6], the “inhibitor class, Table 15” value in test [3] is on record as 27-6 (4).

As for `COC(=O)C1=C(C)N(c2cccc(C(F)(F)F)c2)C(=O)/C1=C\c1cccs1` [Compound 27-7], the “inhibitor class, Table 15” value in test [3] is on record as 27-7 (3).

Turning to `COC(=O)c1sc(SC)c(C#N)c1-c1ccco1` [2055, C21], the “1 Assay (20 uM) 4A5” value in test [1] is 2.07 ND ND ND ND. Besides, the “1 Assay (20 uM) 4B3” value in test [2] amounted to 21.4955 ND ND ND ND.

`C=CCn1c2ccccc2c2nc3ccccc3nc21` [1427, P20]: the “PDE inhibitor profile (Table 17)” value in test [3] is on record as 1427, P20 (3). In addition, the “1 Assay (20 uM) 4B3” value in test [2] (PDE 4B3) came to 103.46 ND ND ND ND. Besides, in test [4], the “1 Assay (20 uM) 4A1” value was 31.38 ND ND ND ND.

On to `CC(C)Cn1c2ccccc2c2nc3ccccc3nc21` [1422, M02], for which, in test [3], the “PDE inhibitor profile (Table 17)” value is given as 1422, M02 (2). For the same compound, the “1 Assay (20 uM) 4B3” value in test [2] (PDE 4B3) is 86.04 ND ND ND ND. In addition, the “1 Assay (20 uM) 4A1” value in test [4] is listed as 40.53 ND ND ND ND.

For the compound `CC(C)n1c2ccccc2c2nc3ccccc3nc21` [1422, I02], the “PDE inhibitor profile (Table 17)” value in test [3] is 1422, I02 (1). Besides, the “1 Assay (20 uM) 4B3” value in test [2] (PDE 4B3) worked out at 99.04 ND ND ND ND. For the same compound, the “1 Assay (20 uM) 4A1” value in test [4] stood at 56.62 ND ND ND ND.

For the compound `CCn1c2ccccc2c2nc3ccccc3nc21` [1422, G02], the “PDE inhibitor profile (Table 17)” value in test [3] is 1422, G02 (1). Besides, the “1 Assay (20 uM) 4B3” value in test [2] (PDE 4B3) is given as 103.69 ND ND ND ND. Besides, the “1 Assay (20 uM) 4A1” value in test [4] came to 70.89 ND ND ND ND.

With `COC(=O)C1=CN(Cc2ccccc2)C(=O)/C1=C\c1cccs1` [Compound 27-4], the “inhibitor class, Table 15” value in test [3] is 27-4 (1).
